Broadly, the melting point is the temperature, or range, at which the solid turns liquid.

Regarding `CCOC(=O)c1nc(-c2cccc(Br)c2)ns1`, the melting point lay in the range of 87 to 90 °C.

Consider `COC(=O)CCc1cc(C(C)(C)C)c(O[Si](C)(C)Oc2c(C(C)(C)C)cc(CCC(=O)OC)cc2C(C)(C)C)c(C(C)(C)C)c1`, for which the melting point was 122 to 129 °C.

`NC(=O)c1ccc(F)c(O)c1F` came in with a melting point of 161 to 162 °C.

On to `[N-]=[N+]=NCC(O)c1cc(S(N)(=O)=O)ccc1F` (configuration not stated), for which the melting point came out at 86 °C.

`CCOC(=O)c1sc(SC)c(C(=O)CC)c1C`: the melting point fell in the range of 114 to 115 °C.

Compound `Cc1cccc(C(=O)Nc2c[nH]nc2C(=O)NCC(O)Cc2ccccc2)n1` (configuration not stated) returned a melting point of 184 to 185 °C.

In turn, `CCOC(=O)c1sc(NC(=O)c2ccc(C)cc2)nc1C(F)(F)C(F)(F)F` gave a melting point of 202 to 203 °C.

On to `CCOc1cc(OC)c(/C=C/C(=O)c2ccc(C(=O)O)cc2)cc1-c1cccs1`, for which the melting point is 210 to 212 °C.

In the case of `CCOC(=O)c1nc2cccnc2n(-c2ccc(Cl)cc2)c1=O`, the melting point was 158 °C.

Take `Cc1ccc(C(=O)OCC2OC(n3cc(C#C[Si](C)(C)C)c(=O)[nH]c3=O)CC2F)cc1` (configuration not stated): the melting point amounted to 130 °C.

`O=C1Cc2cccc(Oc3ccccc3O)c2O1` displayed a melting point of 150 to 152 °C.

In the case of `CCNC(=O)c1ccc(N2CCN(Cc3cnc4c(c3)[nH]c(=O)n3cccc43)CC2)c(F)c1`, the melting point was in the range of 263 to 267 °C.

`CC(C)(C)[Si](C)(C)Oc1ccccc1-c1cc(-c2ccc([N+](=O)[O-])cc2)c(C#N)c(N)n1` displayed a melting point of 168 to 169 °C.

In the case of `CC(=O)OCCC1CCC2C3CCC4CCCCC4(C)C3CCC12C` (configuration not stated), the melting point was in the range of 123 to 125 °C.

For the compound `Cc1c(Cl)cccc1C(=N)NO`, the melting point lay in the range of 119 to 121 °C.

`CCONC(=O)C(=O)NN`: the melting point was found to be 182 °C.

`O=S1(=O)NCN(C2CCCCCC2)c2ccc(Cl)cc21` showed a melting point of 216 to 218 °C.

Consider `O=C(O)CCc1cn(Cc2cccc(C(=O)Nc3ccccn3)c2)nc1-c1ccccc1`, for which the melting point was 187 to 188 °C.

`CC(CNc1nc(N)nc2c1ncn2C1OC(CO)C(O)C1O)(c1ccccc1)c1ccccc1` (configuration not stated) displayed a melting point of 129 to 132 °C.

Regarding `CCN(CC)C(=O)c1c(O)cc(C(F)(F)F)cc1-c1ccc(OC)c(OC)c1`, the melting point worked out at 161 °C.

`Cc1ccc(Nc2cc(C(=O)O)c(Nc3ccc(C)cc3)cc2C(=O)O)cc1` had a melting point of 310 °C.

The compound `CC(Oc1ccc(Cl)nc1Cl)C(=O)O` (configuration not stated) had a melting point of 128 to 131 °C.

Take `CC(=O)c1ccc(Oc2cccnc2)cc1`: the melting point was in the range of 45 to 50 °C.

In turn, `CCCCCNC(=O)N(C)c1cccc(-c2ccc(C=C(OCC)C(=O)O)cc2OCCCC)c1` displayed a melting point of 59 °C.

As to `O=C(O)Cc1ccc(OCCNC(=O)C2Cc3ccccc3N2S(=O)(=O)c2ccc(-c3cc(C(F)(F)F)ccc3Cl)cc2)c(Cl)c1` (configuration not stated), the melting point lay within 108 to 112 °C.

Consider `O=C1CCC(Nc2ncnc3c2ncn3C2OC(CO)C(O)C2O)N1` (configuration not stated), for which the melting point was in the range of 198 to 200 °C.

With `CCOC(=O)C1CCCCCCC(=O)C(=O)N1` (configuration not stated), the melting point was in the range of 129 to 130 °C.

For the compound `CC(CNC(=O)Nc1ccc([N+](=O)[O-])cc1O)OCc1ccccc1` (configuration not stated), the melting point was 64.6 to 65.2 °C.

Compound `CC1(C)C=Cc2cc(S(=O)(=O)C[N+](=O)[O-])ccc2O1` registered a melting point of 81 °C.

As to `CC(C)=CCCC(C)=CCCC(C)=CC=CC(C)=CC(N)=O`, the melting point was 63 to 65 °C.

In the case of `CCCCc1nn(-c2ccc(C(F)(F)F)cn2)cc1CCCOc1nn(CC)cc1CC(=O)O`, the melting point was in the range of 109 to 110 °C.

Take `CCOCCOC(=O)C1=C(C)NC(C)=C([N+](=O)[O-])C1c1cccc([N+](=O)[O-])c1` (configuration not stated): the melting point stood at 140 °C.

With `O=C(Nc1ccc(OC(F)(F)F)cc1)N1CCOC(c2ccc(Br)s2)=N1`, the melting point is 139 to 140 °C.

On to `COC(=O)c1cccc2nc(OC)n(Cc3ccc(-c4ccccc4-c4nnn[nH]4)cc3)c12`, for which the melting point is 165 to 166 °C.

`CCOC(=O)CNC(=O)CCCCCNC(=O)c1ccc(OC)cc1` returned a melting point of 106 to 107 °C.

In the case of `COC(=O)CCC(=O)c1ccc(N)cc1`, the melting point lay within 160 to 162 °C.

`CC(O)c1ccc(Nc2nccc(-c3cccnc3)n2)cc1` (configuration not stated) returned a melting point of 145 to 147 °C.

`CSc1ccc(-n2c(-c3ccccn3)nc(SC)c(C#N)c2=O)cc1` returned a melting point of 158 to 161 °C.

Turning to `COc1ccc2nc(N3CCNCC3)cc(C(F)(F)F)c2c1`, the melting point is 130 °C.

The compound `Cc1cccc(-c2nc(N)sc2-c2ccnc(-c3ccc(CN4CCOCC4)cc3)c2)n1` registered a melting point of 190 to 192 °C.

For `O=C(NC1N=C(c2ccccc2)c2ccccc2NC1=O)c1cccc2ccccc12` (racemic), the melting point is 162 to 167 °C.

`O=Cc1ccc(-c2ccc3ncnc(Nc4ccc(OCc5cccc(F)c5)c(Cl)c4)c3c2)s1`: the melting point amounted to 252 °C.

As for `Clc1ncc(CN2CC3(COc4cc5c(cc43)OCO5)c3ccccc32)s1` (configuration not stated), the melting point was in the range of 195 to 198 °C.

`CCc1ccc(NC(=O)Nc2ccc(Oc3ccnc(OC)c3)cc2)cc1` showed a melting point of 196 °C.

In turn, `O=C(NCc1ccccc1)c1ccccc1-c1ccccc1CNS(=O)(=O)c1cccc(F)c1` had a melting point of 147 °C.

In the case of `Nc1ccc2c(C3=CN4CCC3CC4)c[nH]c2c1`, the melting point was 65 to 67 °C.

As to `COc1ccc(Oc2ccc3ccccc3n2)cc1`, the melting point lay within 96.5 to 98 °C.

In turn, `COc1ccc(S(=O)(=O)Nc2ccccc2NC(=O)c2ccco2)cc1` registered a melting point of 158 to 159 °C.

With `COc1ccc(C23CC(c4ccccc4)C(=O)N2CCN3)cc1` (configuration not stated), the melting point was 150 °C.

As for `CN(C)Cc1ccc(CSCCNc2ncc(-c3ccccc3)c(=O)[nH]2)o1`, the melting point was 116 to 118 °C.

`CNC1C(O)CC2C3CCC4CC(=O)CCC4(C)C3CCC21C` (configuration not stated) came in with a melting point of 167 to 174 °C.

Regarding `COP(=O)(Cc1ccc(-c2nc3ccccc3s2)cc1)OC`, the melting point is 130 °C.

For the compound `CC(C)(C)OC(=O)Nc1cc(N2CCS(=O)(=O)CC2)c(C#Cc2ccccc2)cc1[N+](=O)[O-]`, the melting point is 217 to 221 °C.

In turn, `C=Cc1ccc2nnn(OS(C)(=O)=O)c2c1` showed a melting point of 129 to 130 °C.

Regarding `CC(C)CCN1CCC(CNC(=O)c2cc(Cl)c(N)[nH]c2=O)CC1`, the melting point was in the range of 131 to 135 °C.

In the case of `O=c1c2c(nc3ccc(Br)cn13)C(=Cc1ccc(Cl)cc1Cl)CC2`, the melting point was in the range of 164 to 166 °C.

For `O=C(NCC(F)(F)F)C1(CCCCc2ccc(NS(=O)(=O)c3ccccc3)cc2)c2ccccc2-c2ccccc21`, the melting point was 130 to 132 °C.

The compound `Cc1nc(Nc2ccccc2)nc(C#N)c1C` registered a melting point of 181 to 184 °C.

Compound `CC(C)(C)OC1OC(=O)C2C1C2(C)C` (configuration not stated) returned a melting point of 115 °C.

For the compound `O=C(N[C@H]1CC[C@H](CCN2CCN(c3nccc4c3OCC4)CC2)CC1)c1ccc(N2CCOCC2)nc1`, the melting point worked out at 231 °C.

In the case of `O=C(N(CCCc1c[nH]c2ccccc12)CCOc1cccc2[nH]c(=O)[nH]c12)C(F)(F)F`, the melting point is 180 to 181 °C.

Turning to `CCOC(=O)N1CCC(Nc2nc3cncnc3n2C2CC2)CC1`, the melting point was 177 °C.

`CC(C)(C)c1ccc(C2=NC[C@@H](OC(=O)Nc3ccccc3)[C@H](c3ccccc3)O2)cc1` (racemic) registered a melting point of 80 °C.

Take `CC(C)(C)OC(=O)N[C@@H](COC(=O)C(C)(C)C)Cc1ccccc1`: the melting point lay within 59 to 60 °C.

Regarding `NNc1nc(C(F)(F)F)nc(-c2ccccc2)c1-c1ccccc1`, the melting point lay within 182 to 186 °C.

Turning to `CNC(=C[N+](=O)[O-])NCCSCc1cc2ccc(CN(C)C)cc2o1`, the melting point is 113 to 114 °C.

Take `CCCc1nc2c(N)nc3cccnc3c2n1CC1(O)CCCC1`: the melting point fell in the range of 184 to 186 °C.

In turn, `Cc1oc(-c2ccccc2)nc1COc1ccc(CCCCCO)cc1` yielded a melting point of 78 to 79 °C.

In turn, `Cc1cc(CC(=O)OC(C)(C)C)ccc1NC(=O)Nc1ccccc1` gave a melting point of 143 to 145 °C.

In the case of `CC(C)C[C@H](NC(=O)OCc1ccccc1)C(=O)N[C@@H](Cc1ccccc1)C(=O)CN1CCN(C)CC1`, the melting point lay within 99 to 100 °C.

`Cc1ccc(C(=O)c2ccc3[nH]cc(C4CCN(C)CC4)c3c2)cc1`: the melting point was determined as 92 °C.

As to `COc1ccc(NCc2cc(OC)c(OC)c(OC)c2)cc1`, the melting point lay in the range of 73 to 74 °C.

Compound `Cn1c(CNCC(C)(C)O)cc2cc(NC(=O)c3ccc(OCC4CC4)cc3)ccc21` returned a melting point of 188 to 189 °C.

Take `FC(F)(F)c1cccnc1-n1c(/C=C/c2ccccc2)nc2ccccc21`: the melting point was 156 to 157 °C.

For `O=[N+]([O-])N=C1N(COCCBr)CCN1Cc1ccc(Cl)nc1`, the melting point fell in the range of 90 to 92 °C.

`CCN1C(=O)CCC(C)(C)c2cc(Nc3ncc(Cl)c(N[C@H]4[C@@H](C(N)=O)[C@@H]5C=C[C@H]4C5)n3)c(OC)cc21` came in with a melting point of 156 to 166 °C.

`OCC1(c2ccc(Cl)cc2)CC1c1ccc(-c2ccccc2)cc1` (configuration not stated) returned a melting point of 168 to 170 °C.

In the case of `COc1cc(OC)cc(C(=O)N2CCc3cc(OCc4ccccc4)c(OC)cc3C2=O)c1`, the melting point was 180 to 181 °C.

Compound `COc1ccccc1N1CCN(CC(O)COc2cc(C)c(OCc3ccccc3)c(C)c2)CC1` (configuration not stated) came in with a melting point of 93 to 94 °C.

In turn, `Cc1cccc(-c2n[nH]cc2-c2ccnc(-c3ccc(C(=O)NC4CCOCC4)cc3)c2)n1` showed a melting point of 148 °C.

For the compound `CNC(=O)NC(=O)C(CC1CCC(=O)C1)c1ccc(Cl)c(Cl)c1` (configuration not stated), the melting point was 70 to 74 °C.

The compound `Cc1cccc(COCc2cccc(OCc3ccc4ccccc4n3)c2)c1C(=O)O` came in with a melting point of 39 to 65 °C.

Take `O=C1Cc2c(cc3ccccc3c2Cl)C(c2ccccc2F)N1` (configuration not stated): the melting point is 206 to 209 °C.

As to `CC(=O)N1OC(C)C(=S)NC1c1ccccc1C` (configuration not stated), the melting point is 167 to 170 °C.

`CCCc1ccc(O)c(NC(=O)C(=O)OCC)c1` showed a melting point of 155 to 160 °C.

Compound `CCOC(=O)n1c2ccccc2c(=O)n1Cc1ccc([N+](=O)[O-])cc1` gave a melting point of 123 to 124 °C.

`CC(C)CCOc1cccc2oc(C(=O)O)cc(=O)c12` came in with a melting point of 179 to 180 °C.

Source of the values: a melting point compilation (Tetko et al.; mined from patent text by program, amines drawn as free bases though some values may be those of a salt).
